# Measured values from patent US20220074941A1, “HSP90 COMBINATION THERAPY” (Sloan-Kettering Institute for Cancer Research, priority 2011, published 2022).
# “Also recorded” adds a separate entry of the source.
# Legend:
# [1] = tested on: OCI-LYI, OCI-LY7, Farage and SUDHL6 DLBCL cells; assay: Combination of PU-H71 with SYK inhibitor in DLBCL cells; format: cell-based
# DLBCL cell lines = settings: literature; cited from earlier work
# K562 CML cells = assay: Drug combination with PU-H71 in CML cells; format: cell-based
# From the text: Since single agent therapy is not likely to be curative in cancer, it is necessary to design rational combinatorial therapy approaches. Proteomic identification of oncogenic Hsp90-scaffolded signaling networks may identify additional oncoproteins that could be further targeted using specific small molecule inhibitors.
SMILES,efficacy of combination with PU-H71 versus each inhibitor alone [1],effect on DLBCL cell lines (DLBCL cell lines),drug interaction with Hsp90 inhibitor PU-H71 (K562 CML cells)
COc1cc(Nc2ncc(F)c(Nc3ccc4c(n3)NC(=O)C(C)(C)O4)n2)cc(OC)c1OC [Compound R406],synergizes; also recorded: more efficacious,blocks proliferation and induces apoptosis,
COc1ccc(S(=O)(=O)N(CCO)c2ccccc2CN(C)C/C=C/c2ccc(Cl)cc2)cc1 [KN93],,,synergize
